According to PubChem BioAssay (NCI):
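Tested at 5 concentrations; 48 h exposure; 96-well plates; endpoints linearly interpolated, else capped at highest concentration. Definition used: TGI = concentration required for complete inhibition of growth.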

Legend:
Assay in all cases: inhibition of tumour cell growth, NCI panel, 48 h
COLO 205 colon = test system: COLO 205 colon
NCI-H460 lung = test system: NCI-H460 lung
NCI/ADR-RES ovarian = test system: NCI/ADR-RES ovarian
HOP-92 NSCLC = test system: HOP-92 NSCLC
PC-3 prostate = test system: PC-3 prostate
OVCAR-5 ovarian = test system: OVCAR-5 ovarian
SR leukemia = test system: SR leukemia
HCT-116 colon = test system: HCT-116 colon
A549 NSCLC = test system: A549 NSCLC
SNB-19 CNS = test system: SNB-19 CNS
HCT-15 colon = test system: HCT-15 colon
OVCAR-3 ovarian = test system: OVCAR-3 ovarian
MDA-MB-231 breast = test system: MDA-MB-231 breast
SK-OV-3 ovarian = test system: SK-OV-3 ovarian
TK-10 renal = test system: TK-10 renal
MOLT-4 leukemia = test system: MOLT-4 leukemia
UACC-62 melanoma = test system: UACC-62 melanoma
HCC-2998 colon = test system: HCC-2998 colon
MDA-MB-435 = test system: MDA-MB-435
OVCAR-8 ovarian = test system: OVCAR-8 ovarian
LOX IMVI melanoma = test system: LOX IMVI melanoma
NCI-H226 lung = test system: NCI-H226 lung
OVCAR-4 ovarian = test system: OVCAR-4 ovarian
SF-539 CNS = test system: SF-539 CNS
UO-31 renal = test system: UO-31 renal
HS 578T breast = test system: HS 578T breast
SK-MEL-5 melanoma = test system: SK-MEL-5 melanoma
MCF7 breast = test system: MCF7 breast
MALME-3M melanoma = test system: MALME-3M melanoma
UACC-257 melanoma = test system: UACC-257 melanoma
K-562 leukemia = test system: K-562 leukemia
T-47D breast = test system: T-47D breast
RPMI-8226 leukemia = test system: RPMI-8226 leukemia
SF-295 CNS = test system: SF-295 CNS
U251 CNS = test system: U251 CNS
786-0 renal = test system: 786-0 renal
SK-MEL-2 melanoma = test system: SK-MEL-2 melanoma
HT29 colon = test system: HT29 colon
A498 renal = test system: A498 renal
NCI-H23 lung = test system: NCI-H23 lung
SF-268 CNS = test system: SF-268 CNS
M14 melanoma = test system: M14 melanoma
DU-145 prostate = test system: DU-145 prostate
HL-60(TB) leukemia = test system: HL-60(TB) leukemia
KM12 colon = test system: KM12 colon
HOP-62 NSCLC = test system: HOP-62 NSCLC
SN12C renal = test system: SN12C renal
EKVX NSCLC = test system: EKVX NSCLC
SW-620 colon = test system: SW-620 colon
ACHN renal = test system: ACHN renal
SNB-75 CNS = test system: SNB-75 CNS
MDA-N = test system: MDA-N
CCRF-CEM leukemia = test system: CCRF-CEM leukemia
SK-MEL-28 melanoma = test system: SK-MEL-28 melanoma
NCI-H522 lung = test system: NCI-H522 lung
IGROV1 ovarian = test system: IGROV1 ovarian
CAKI-1 renal = test system: CAKI-1 renal
BT-549 breast = test system: BT-549 breast
RXF 393 renal = test system: RXF 393 renal

Measured: TGI

Cc1oc2ccccc2c(=O)c1Cn1nnc2ccccc21
87.4 µM: HOP-92 NSCLC
49.2 µM: MCF7 breast
79.7 µM: OVCAR-3 ovarian
48.5 µM: SK-MEL-5 melanoma
66.9 µM: UACC-257 melanoma
44.2 µM: T-47D breast
not listed: NCI-H522 lung | IGROV1 ovarian | CAKI-1 renal | BT-549 breast | RXF 393 renal
> 100 µM: all other assays above

O=c1cnn(C2OC(CO)C(O)C(F)C2O)c(=O)[nH]1 (stereo unspecified)
not listed: MOLT-4 leukemia | HOP-62 NSCLC | SNB-75 CNS | RXF 393 renal
> 100 µM: all other assays above

COc1c2nc(CCl)n(C)c(=O)c2c(OC)c2c(=O)n(C)c(CCl)nc12
3.29 µM: U251 CNS | 786-0 renal
2.86 µM: HCT-15 colon
2.8 µM: NCI-H522 lung
5.16 µM: SF-295 CNS
4.14 µM: RXF 393 renal
2.71 µM: COLO 205 colon
2.94 µM: CAKI-1 renal
7.83 µM: K-562 leukemia
2.36 µM: MCF7 breast
95 µM: HS 578T breast
1.75 µM: LOX IMVI melanoma
2.43 µM: ACHN renal
13.3 µM: A549 NSCLC
4.96 µM: SK-MEL-5 melanoma
2.49 µM: UO-31 renal
3.4 µM: NCI-H23 lung
7.65 µM: MDA-MB-435
3.94 µM: SK-MEL-28 melanoma
1.54 µM: MOLT-4 leukemia
1.64 µM: RPMI-8226 leukemia
2.87 µM: HT29 colon
2.46 µM: KM12 colon
3.31 µM: MDA-N
5.94 µM: A498 renal
2.88 µM: MDA-MB-231 breast
6.88 µM: NCI/ADR-RES ovarian
3.56 µM: SN12C renal
5.68 µM: OVCAR-3 ovarian
3.44 µM: MALME-3M melanoma
3.8 µM: SNB-75 CNS
14 µM: DU-145 prostate
2.68 µM: PC-3 prostate
13.1 µM: SF-539 CNS
2.09 µM: CCRF-CEM leukemia
13.7 µM: NCI-H226 lung
4.56 µM: IGROV1 ovarian
13.2 µM: OVCAR-8 ovarian
5.07 µM: SNB-19 CNS
4.66 µM: NCI-H460 lung
2.6 µM: SW-620 colon
1.96 µM: BT-549 breast
> 100 µM: HOP-92 NSCLC | OVCAR-4 ovarian
11.8 µM: EKVX NSCLC
2.65 µM: HCC-2998 colon
2.47 µM: HL-60(TB) leukemia
5.7 µM: HOP-62 NSCLC
5.24 µM: UACC-257 melanoma
7.75 µM: OVCAR-5 ovarian
4.52 µM: SF-268 CNS
1.76 µM: TK-10 renal

COc1ccc(-c2nc3ncccn3c2-c2ccc(S(C)=O)cc2)cc1 (stereo unspecified)
53.8 µM: MDA-MB-435
65.4 µM: CAKI-1 renal
not listed: TK-10 renal | HCC-2998 colon | NCI-H226 lung | MALME-3M melanoma | T-47D breast | A498 renal | EKVX NSCLC | NCI-H522 lung | RXF 393 renal
> 100 µM: all other assays above
